From ChEMBL document CHEMBL3871299, “Design and synthesis of new piperidone grafted acetylcholinesterase inhibitors” (Bioorg Med Chem Lett, 2017)

Columns and labels:
Acetylcholinesterase [1] = target: T1, Acetylcholinesterase (Homo sapiens, UniProt P22303); experiment: Inhibition of acetylcholinesterase (unknown origin) assessed as reduction in formation of 5-thio-2-nitrobenzoate from acetylthiocholine iodide at 5 ug/ml preincubated for 15 mins followed by substrate addition measured after 30 mins by Ellman's method
Acetylcholinesterase [2] = target: T1, Acetylcholinesterase; experiment: Inhibition of acetylcholinesterase (unknown origin) assessed as reduction in formation of 5-thio-2-nitrobenzoate from acetylthiocholine iodide preincubated for 15 mins followed by substrate addition measured after 30 mins by Ellman's method
[3] = Cytotoxicity against human SH-SY5Y cells assessed as reduction in cell viability at 0.2 to 40 uM measured after 24 hrs by MTT assay; format: toxicity, cell-based

T1 sequence (P22303 whole entry): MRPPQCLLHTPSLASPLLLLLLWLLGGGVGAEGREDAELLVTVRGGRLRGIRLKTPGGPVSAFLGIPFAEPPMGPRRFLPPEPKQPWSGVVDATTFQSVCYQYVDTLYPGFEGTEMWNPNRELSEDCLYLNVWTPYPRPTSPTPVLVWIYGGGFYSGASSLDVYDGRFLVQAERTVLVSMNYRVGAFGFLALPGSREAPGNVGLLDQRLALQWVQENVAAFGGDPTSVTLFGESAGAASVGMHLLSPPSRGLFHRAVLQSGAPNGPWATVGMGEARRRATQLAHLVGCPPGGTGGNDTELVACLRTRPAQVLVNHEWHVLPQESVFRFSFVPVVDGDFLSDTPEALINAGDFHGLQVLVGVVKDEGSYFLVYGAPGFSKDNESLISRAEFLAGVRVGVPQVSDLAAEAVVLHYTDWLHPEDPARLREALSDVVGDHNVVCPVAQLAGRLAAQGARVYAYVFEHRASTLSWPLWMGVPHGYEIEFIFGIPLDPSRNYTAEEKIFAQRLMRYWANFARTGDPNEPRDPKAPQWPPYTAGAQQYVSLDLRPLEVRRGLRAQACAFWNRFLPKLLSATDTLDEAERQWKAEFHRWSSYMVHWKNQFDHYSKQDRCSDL

| SMILES | inhibition (Acetylcholinesterase [1]) [%] | IC50 (Acetylcholinesterase [2]) [µM] | Activity [3] |
| --- | --- | --- | --- |
| Cc1ccc(C2=CSC3=NC4=C(CNCC4=Cc4ccccc4)C(c4ccccc4)N23)cc1 (configuration not stated) | 42.1 |  |  |
| Cc1ccc(/C=C2\CN(Cc3cccc(C)c3)C/C(=C\c3ccc(C)cc3)C2=O)cc1 | 59.8 | 3.22 |  |
| Brc1ccc(C=C2CNCC3=C2N=C2SC=C(c4ccc(Br)cc4)N2C3c2ccc(Br)cc2)cc1 (configuration not stated) | 48.3 |  |  |
| Cc1ccc(/C=C2\CN(Cc3ccc4ccccc4c3)C/C(=C\c3ccc(C)cc3)C2=O)cc1 | 72.6 | 1.59 |  |
| Cc1ccc(C=C2CNCC3=C2N=C2SC=C(c4ccc(Br)cc4)N2C3c2ccc(C)cc2)cc1 (configuration not stated) | 64.6 | 2.27 |  |
| Cc1ccc(C=C2CNCC3=C2N=C2SC=C(c4ccc(C)cc4)N2C3c2ccc(C)cc2)cc1 (configuration not stated) | 60.4 | 1.8 |  |
| C(=C1CNCC2=C1N=C1SC=C(c3ccccc3)N1C2c1ccccc1)c1ccccc1 (configuration not stated) | 48.6 |  |  |
| Brc1ccc(C=C2CNCC3=C2N=C2SC=C(c4ccccc4)N2C3c2ccc(Br)cc2)cc1 (configuration not stated) | 66.7 | 1.48 |  |
| C(=C1CNCC2=C1N=C1SC=C(c3ccc4ccccc4c3)N1C2c1ccccc1)c1ccccc1 (configuration not stated) | 41.8 |  |  |
| Cc1ccc(C=C2CNCC3=C2N=C2SC=C(c4ccc5ccccc5c4)N2C3c2ccc(C)cc2)cc1 (configuration not stated) | 69.6 | 0.98 | Non-Toxic |
| Clc1ccc(C=C2CNCC3=C2N=C2SC=C(c4ccc(Br)cc4)N2C3c2ccc(Cl)cc2)cc1 (configuration not stated) | 41.6 |  |  |
| Brc1ccc(C=C2CNCC3=C2N=C2SC=C(c4ccc5ccccc5c4)N2C3c2ccc(Br)cc2)cc1 (configuration not stated) | 65.7 | 0.73 | Non-Toxic |
| Cc1ccc(C=C2CNCC3=C2N=C2SC=C(c4ccccc4)N2C3c2ccc(C)cc2)cc1 (configuration not stated) | 45.7 |  |  |
| Cc1cccc(CN2C/C(=C\c3ccc(Br)cc3)C(=O)/C(=C/c3ccc(Br)cc3)C2)c1 | 45.7 |  |  |
| O=C1/C(=C/c2ccc(Br)cc2)CN(Cc2ccc3ccccc3c2)C/C1=C\c1ccc(Br)cc1 | 67.2 | 0.83 | Non-Toxic |
| Cc1cccc(CN2C/C(=C\c3ccc(Cl)cc3)C(=O)/C(=C/c3ccc(Cl)cc3)C2)c1 | 41.6 |  |  |
| Cc1ccc(C2=CSC3=NC4=C(CNCC4=Cc4ccc(Br)cc4)C(c4ccc(Br)cc4)N23)cc1 (configuration not stated) | 68.3 | 1.01 | Non-Toxic |
| O=C1/C(=C/c2ccc(Cl)cc2)CN(Cc2ccc3ccccc3c2)C/C1=C\c1ccc(Cl)cc1 | 42.4 |  |  |
| O=C1/C(=C/c2ccccc2)CN(Cc2ccc3ccccc3c2)C/C1=C\c1ccccc1 | 67.9 | 1.93 |  |
| Clc1ccc(C=C2CNCC3=C2N=C2SC=C(c4ccc5ccccc5c4)N2C3c2ccc(Cl)cc2)cc1 (configuration not stated) | 62.8 | 1.35 |  |
| Brc1ccc(C2=CSC3=NC4=C(CNCC4=Cc4ccccc4)C(c4ccccc4)N23)cc1 (configuration not stated) | 48.7 |  |  |
| Clc1ccc(C=C2CNCC3=C2N=C2SC=C(c4ccccc4)N2C3c2ccc(Cl)cc2)cc1 (configuration not stated) | 41.6 |  |  |
| Cc1cccc(CN2C/C(=C\c3ccccc3)C(=O)/C(=C/c3ccccc3)C2)c1 | 63.1 | 3.18 |  |
| Cc1ccc(C2=CSC3=NC4=C(CNCC4=Cc4ccc(Cl)cc4)C(c4ccc(Cl)cc4)N23)cc1 (configuration not stated) | 74.7 | 1.09 | Non-Toxic |
